Results published in US7964624B1, “Inhibitors of serine proteases” (priority 2005, dated 2011).

target: T1, HCV NS3 protease domain (Hepatitis C virus genotype 1b, UniProt Q9WMX2); test: biochemical; settings: Enzyme Assay 1 (HCV NS3 Protease Domain Peptide Cleavage Assay) activity, apparent Ki class
T1 construct: The first 181 amino acids of NS3 (residues 1027-1207 of the viral polyprotein); hexa-histidine (C); made in house; host or cells: E. coli BL21/DE3 pLysS
T1 sequence (Q9WMX2 1027-1207, other chains not shown): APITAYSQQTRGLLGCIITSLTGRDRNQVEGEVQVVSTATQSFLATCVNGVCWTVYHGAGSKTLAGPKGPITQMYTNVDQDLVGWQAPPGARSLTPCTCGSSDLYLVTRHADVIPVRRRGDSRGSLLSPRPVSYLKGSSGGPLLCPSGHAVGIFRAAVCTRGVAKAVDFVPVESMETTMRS

Row | SMILES | Ki
1 | CCC[C@H](NC(=O)[C@@H]1C[C@]2(CC(c3ccc(F)cc3)=NO2)CN1C(=O)[C@@H](NC(C)=O)C(C)(C)C)C(=O)C(=O)NC1CC1 [Compound 331] | > 500 nM
2 | CCC[C@H](NC(=O)[C@@H]1C[C@]2(CC(c3cccc(Cl)c3)=NO2)CN1C(=O)[C@@H](NC(=O)N[C@@H](C)c1ccccc1)C(C)(C)C)C(=O)C(=O)NC1CC1 [Compound 333] | 100 to 500 nM
3 | CCC[C@H](NC(=O)[C@@H]1C[C@]2(CC(c3cccc(Cl)c3)=NO2)CN1C(=O)[C@@H](NC(=O)[C@@H](C)Cc1ccccc1)C(C)(C)C)C(=O)C(=O)NC1CC1 [Compound 334] | > 500 nM
4 | CCC[C@H](NC(=O)[C@@H]1C[C@]2(CC(c3ccc(OC)cc3OC)=NO2)CN1C(=O)[C@@H](NC(=O)OCc1ccccc1)C(C)(C)C)C(=O)C(=O)NC1CC1 [Compound 335] | > 500 nM
5 | CCC[C@H](NC(=O)[C@@H]1C[C@]2(CC(C(=O)NCc3ccccc3)=NO2)CN1C(=O)[C@@H](NC(=O)O[C@H]1CCOC1)C(C)(C)C)C(=O)C(=O)NC1CC1 [Compound 341] | > 500 nM
6 | CCC[C@H](NC(=O)[C@@H]1C[C@]2(CC(c3cccc(Cl)c3)=NO2)CN1C(=O)[C@@H](Nc1ncc(C)cc1[N+](=O)[O-])C(C)(C)C)C(=O)C(=O)NC1CC1 [Compound 345] | > 500 nM
7 | CCC[C@H](NC(=O)[C@@H]1C[C@]2(CC(c3cc(F)cc(C(F)(F)F)c3)=NO2)CN1C(=O)O[C@H]1CCOC1)C(=O)C(=O)NC1CC1 [Compound 348] | > 500 nM
8 | CCC[C@H](NC(=O)[C@@H]1C[C@]2(CC(c3cccc(Cl)c3)=NO2)CN1C(=O)[C@@H](NC(=O)CC1CCCCC1)C(C)(C)C)C(=O)C(=O)Nc1cccc(C(C)=O)c1 [Compound 355] | > 500 nM
9 | CCC[C@H](NC(=O)[C@@H]1C[C@]2(CC(c3cccc(Cl)c3)=NO2)CN1C(=O)[C@@H](NC(=O)OCc1ccncc1)C(C)(C)C)C(=O)C(=O)NC1CC1 [Compound 357] | 100 to 500 nM
10 | C=C[C@@H]1C[C@]1(NC(=O)[C@@H]1C[C@]2(CC(c3cccc(Cl)c3)=NO2)CN1C(=O)[C@@H](NC(=O)CC1CCOCC1)C(C)(C)C)C(=O)NS(=O)(=O)C1CC1 [Compound 359] | 100 to 500 nM
11 | CCC[C@H](NC(=O)[C@@H]1C[C@]2(CC(c3cccc(Cl)c3)=NO2)CN1C(=O)[C@@H](NC(=O)CC1CCCCCC1)C(C)(C)C)C(=O)C(=O)NC1CC1 [Compound 360] | > 500 nM
12 | CCC[C@H](NC(=O)[C@@H]1C[C@]2(CC(C(=O)c3ccc(Cl)cc3)=NO2)CN1C(=O)[C@@H](NC(=O)O[C@H]1CCOC1)C(C)(C)C)C(=O)C(=O)NC1CC1 [Compound 364] | > 500 nM
13 | CCC[C@H](NC(=O)[C@@H]1C[C@]2(CC(c3ccccc3)=NO2)CN1C(=O)NCc1cc(OC)c(OC)c(OC)c1)C(=O)C(=O)NC1CC1 [Compound 367] | > 500 nM
14 | CCC[C@H](NC(=O)[C@@H]1C[C@]2(CC(c3ccc(OC)cc3OC)=NO2)CN1C(=O)OCC1c2ccccc2-c2ccccc21)C(=O)C(=O)NC1CC1 [Compound 371] | 100 to 500 nM
15 | CCC[C@H](NC(=O)[C@@H]1C[C@]2(CC(c3cccc(Cl)c3)=NO2)CN1C(=O)[C@@H](NC(=O)OCCCc1ccccn1)C(C)(C)C)C(=O)C(=O)NC1CC1 [Compound 373] | 100 to 500 nM
16 | CCC[C@H](NC(=O)[C@@H]1C[C@]2(CC(c3cccc(Cl)c3)=NO2)CN1C(=O)[C@@H](NC(=O)OC1CCOCC1)C(C)(C)C)C(=O)C(=O)NC1CC1 [Compound 374] | 100 to 500 nM
17 | CCC[C@H](NC(=O)[C@@H]1C[C@]2(CC(c3ccc4c(c3)OCO4)=NO2)CN1C(=O)[C@@H](NC(=O)CC1CCOCC1)C(C)(C)C)C(=O)C(N)=O [Compound 375] | > 500 nM
18 | CCC[C@H](NC(=O)[C@@H]1C[C@]2(CC(c3cccc(Cl)c3)=NO2)CN1C(=O)[C@@H](NC(=O)OCc1ccccn1)C(C)(C)C)C(=O)C(=O)NC1CC1 [Compound 378] | 100 to 500 nM
19 | CCC[C@H](NC(=O)[C@@H]1C[C@]2(CC(c3cccc(Cl)c3)=NO2)CN1C(=O)[C@@H](NC(=O)NC(C)C)C(C)(C)C)C(=O)C(=O)NC1CC1 [Compound 379] | < 100 nM
20 | CCC[C@H](NC(=O)[C@@H]1C[C@]2(CC(c3cccc(Cl)c3)=NO2)CN1C(=O)[C@@H](NC(=O)c1n[nH]c(=O)c2ccccc12)C(C)(C)C)C(=O)C(=O)NC1CC1 [Compound 381] | 100 to 500 nM
21 | CCC[C@H](NC(=O)[C@@H]1C[C@]2(CC(CC)=NO2)CN1C(=O)[C@@H](NC(=O)OCc1ccccc1)C(C)(C)C)C(=O)C(=O)NC1CC1 [Compound 383] | > 500 nM
22 | CCC[C@H](NC(=O)[C@@H]1C[C@]2(CC(c3ccc(C)cc3)=NO2)CN1C(=O)[C@@H](NC(=O)O[C@H]1CCOC1)C(C)(C)C)C(=O)C(=O)NC1CC1 [Compound 385] | > 500 nM
23 | CCC[C@H](NC(=O)[C@@H]1C[C@]2(CC(c3cccc(Cl)c3)=NO2)CN1C(=O)[C@@H](NC(=O)O[C@H]1CO[C@H]2OCC[C@H]21)C(C)(C)C)C(=O)C(=O)NC1CC1 [Compound 387] | 100 to 500 nM
24 | CCC[C@H](NC(=O)[C@@H]1C[C@]2(CC(c3cccc(Cl)c3)=NO2)CN1C(=O)[C@@H](NC(=O)OCCCc1cccnc1)C(C)(C)C)C(=O)C(=O)NC1CC1 [Compound 389] | > 500 nM

Row | SMILES | Ki
25 | CCC[C@H](NC(=O)[C@@H]1C[C@]2(CC(c3cccc(Cl)c3)=NO2)CN1C(=O)[C@@H](NC(=O)CC(C)(C)O)C(C)(C)C)C(=O)C(=O)NC1CC1 [Compound 392] | 100 to 500 nM
26 | CCC[C@H](NC(=O)[C@@H]1C[C@]2(CC(c3cccc(Cl)c3)=NO2)CN1C(=O)[C@@H](NC(=O)C(F)c1ccccc1)C(C)(C)C)C(=O)C(=O)NC1CC1 (stereo partly drawn) [Compound 393] | 100 to 500 nM
27 | CCCC1=NO[C@]2(C1)C[C@@H](C(=O)N[C@@H](CCC)C(=O)C(=O)NC1CC1)N(C(=O)[C@@H](NC(=O)[C@@H](NC(=O)c1cnccn1)C1CCCCC1)C(C)(C)C)C2 [Compound 400] | < 100 nM
28 | CCC[C@H](NC(=O)[C@@H]1C[C@]2(CC(c3cccc(Cl)c3)=NO2)CN1C(=O)[C@@H](NC(=O)CC1=C(c2cccs2)CCC1=O)C(C)(C)C)C(=O)C(=O)NC1CC1 [Compound 402] | 100 to 500 nM
29 | CCC[C@H](NC(=O)[C@@H]1C[C@]2(CC(c3ccc(C(C)C)cc3)=NO2)CN1C(=O)O[C@H]1CCOC1)C(=O)C(=O)NC1CC1 [Compound 405] | > 500 nM
30 | CCC[C@H](NC(=O)[C@@H]1C[C@]2(CC(c3cccc(Cl)c3)=NO2)CN1C(=O)[C@@H](NC(=O)OCC)C(C)(C)C)C(=O)C(=O)NC1CC1 [Compound 407] | 100 to 500 nM
31 | CCC[C@H](NC(=O)[C@@H]1C[C@]2(CC(c3ccc(F)c(C)c3)=NO2)CN1C(=O)O[C@H]1CCOC1)C(=O)C(=O)NC1CC1 [Compound 413] | > 500 nM
32 | CCC[C@H](NC(=O)[C@@H]1C[C@]2(CC(c3cc(F)c(F)c(F)c3)=NO2)CN1C(=O)O[C@H]1CCOC1)C(=O)C(=O)NC1CC1 [Compound 414] | > 500 nM
33 | CC(C)(C)[C@H](NC(=O)OCc1ccccc1)C(=O)N1C[C@@]2(CC(c3ccc4c(c3)OCO4)=NO2)C[C@H]1C(=O)NC(CC1CCC1)C(=O)C(N)=O (stereo partly drawn) [Compound 415] | 100 to 500 nM
34 | CCC[C@H](NC(=O)[C@@H]1C[C@]2(CC(c3ccc(F)cc3)=NO2)CN1C(=O)[C@@H](NC(=O)[C@@H](NC(=O)c1cnccn1)C(C)(C)C)C(C)(C)C)C(=O)C(=O)NC1CC1 [Compound 417] | < 100 nM
35 | CCC[C@H](NC(=O)[C@@H]1C[C@]2(CC(c3cccc(Cl)c3)=NO2)CN1C(=O)C1CC1c1ccccc1)C(=O)C(=O)NC1CC1 (stereo partly drawn) [Compound 421] | > 500 nM
36 | CCC[C@H](NC(=O)[C@@H]1C[C@]2(CC(c3ccc4c(c3)OCO4)=NO2)CN1C(=O)[C@@H](NC(=O)O[C@H]1CCOC1)C(C)(C)C)C(=O)C(N)=O [Compound 422] | 100 to 500 nM
37 | CCC[C@H](NC(=O)[C@@H]1C[C@@]2(CC(c3ccc(C)c(F)c3)=NO2)CN1C(=O)[C@@H](NC(=O)O[C@H]1CCOC1)C(C)(C)C)C(=O)C(=O)NC1CC1 [Compound 423] | > 500 nM
38 | COc1ccc(C2=NO[C@@]3(C2)C[C@@H](C(=O)NC(CC2CCC2)C(=O)C(N)=O)N(C(=O)[C@@H](NC(=O)OCc2ccccc2)C(C)(C)C)C3)c(OC)c1 (stereo partly drawn) [Compound 424] | 100 to 500 nM
39 | CCC[C@H](NC(=O)[C@@H]1C[C@]2(CC(c3cccc(-c4ccncc4)c3)=NO2)CN1C(=O)[C@@H](NC(=O)O[C@H]1CCOC1)C(C)(C)C)C(=O)C(=O)NC1CC1 [Compound 425] | > 500 nM
40 | CCC[C@H](NC(=O)[C@@H]1C[C@]2(CC(c3cccc(Cl)c3)=NO2)CN1C(=O)[C@H](Cc1ccccc1)NC(=O)OCC)C(=O)C(=O)NC1CC1 [Compound 427] | > 500 nM
41 | CCC[C@H](NC(=O)[C@@H]1C[C@@]2(CC(c3ccccc3)=NO2)CN1C(=O)[C@@H](NC(=O)[C@@H](NC(=O)c1cnccn1)C1CCCCC1)C(C)(C)C)C(=O)C(=O)NC1CC1 [Compound 428] | 100 to 500 nM
42 | CCC[C@H](NC(=O)[C@@H]1C[C@]2(CC(c3cccc(Cl)c3)=NO2)CN1C(=O)[C@@H](NC(=O)Cc1ccccc1C)C(C)(C)C)C(=O)C(=O)NC1CC1 [Compound 431] | 100 to 500 nM
43 | CCC[C@H](NC(=O)[C@@H]1C[C@]2(CC(c3cccc(Cl)c3)=NO2)CN1C(=O)[C@@H](NC(=O)N(C)CC)C(C)(C)C)C(=O)C(=O)NC1CC1 [Compound 432] | > 500 nM
44 | CCC[C@H](NC(=O)[C@@H]1C[C@]2(CC(c3cccc(OC)c3OC)=NO2)CN1C(=O)[C@@H](NC(=O)OCc1ccccc1)C(C)(C)C)C(=O)C(=O)NC1CC1 [Compound 434] | 100 to 500 nM
45 | CCC[C@H](NC(=O)[C@@H]1C[C@]2(CC(c3cccc(Cl)c3)=NO2)CN1C(=O)[C@@H](NC(=O)c1c(OC)ccc2ccccc12)C(C)(C)C)C(=O)C(=O)NC1CC1 [Compound 435] | 100 to 500 nM
46 | CCC[C@H](NC(=O)[C@@H]1C[C@]2(CC(c3ccc(Cl)c(C)c3)=NO2)CN1C(=O)[C@@H](NC(=O)CC1CCCCC1)C(C)(C)C)C(=O)C(=O)NC1CC1 [Compound 436] | 100 to 500 nM
47 | CCC[C@H](NC(=O)[C@@H]1C[C@]2(CC(c3cccc(C)c3)=NO2)CN1C(=O)[C@@H](NC(=O)O[C@H]1CCOC1)C(C)(C)C)C(=O)C(=O)NC1CC1 [Compound 444] | 100 to 500 nM
48 | CCC[C@H](NC(=O)[C@@H]1C[C@]2(CC(c3ccc4noc(-c5ccc(Cl)cc5)c4c3)=NO2)CN1C(=O)[C@@H](NC(=O)O[C@H]1CCOC1)C(C)(C)C)C(=O)C(=O)NC1CC1 [Compound 448] | 100 to 500 nM
